Tests used:
Substance-P receptor [1] = target: T1, Substance-P receptor (Homo sapiens, UniProt P25103); assay: Binding affinity towards Neurokinin -1(NK-1) receptor of human by using [125I]- Tyr8 substance P as a radioligand in CHO cells; format: cell-based
Substance-P receptor [2] = target: T1, Substance-P receptor; settings: CHO
Description: Dissociation constant towards Neurokinin -1(NK-1) receptor of human by using [125I]- Tyr8 substance P as a radioligand in CHO cells

T1 sequence (P25103 whole entry): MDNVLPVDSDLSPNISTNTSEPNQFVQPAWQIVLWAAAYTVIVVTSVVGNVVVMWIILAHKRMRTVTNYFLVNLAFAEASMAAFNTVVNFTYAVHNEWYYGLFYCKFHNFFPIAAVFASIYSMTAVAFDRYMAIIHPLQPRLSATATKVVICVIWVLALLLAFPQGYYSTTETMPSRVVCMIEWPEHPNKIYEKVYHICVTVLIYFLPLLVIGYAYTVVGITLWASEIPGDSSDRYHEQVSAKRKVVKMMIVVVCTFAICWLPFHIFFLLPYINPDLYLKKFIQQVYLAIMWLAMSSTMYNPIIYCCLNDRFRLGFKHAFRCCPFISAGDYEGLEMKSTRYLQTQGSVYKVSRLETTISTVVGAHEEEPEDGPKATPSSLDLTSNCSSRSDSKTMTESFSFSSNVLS

Row | SMILES | IC50 (Substance-P receptor [1]) [nM] | pKa (Substance-P receptor [2])
1 | FC(F)(F)c1cc(CO[C@H]2CCCC[C@H]2c2ccccc2)cc(C(F)(F)F)c1 | 2630 | 
2 | FC(F)(F)c1cc(CO[C@H]2CCCN[C@H]2c2ccccc2)cc(C(F)(F)F)c1 |  | 8.3
3 | NC(=O)C[C@H]1CCC[C@H](OCc2cc(C(F)(F)F)cc(C(F)(F)F)c2)[C@@H]1c1ccccc1 (stereo in doubt; 22) | 1.5 | 
4 | NC(=O)C[C@H]1CCC[C@H](OCc2cc(C(F)(F)F)cc(C(F)(F)F)c2)[C@@H]1c1ccccc1 (stereo in doubt; 19a) | 3 | 
5 | NC(=O)NC[C@H]1CCC[C@H](OCc2cc(C(F)(F)F)cc(C(F)(F)F)c2)[C@@H]1c1ccccc1 | 6.7 | 
6 | FC(F)(F)c1cc(CO[C@H]2CCCO[C@H]2c2ccccc2)cc(C(F)(F)F)c1 | 881 | 
7 | CN1CCC[C@H](OCc2cc(C(F)(F)F)cc(C(F)(F)F)c2)[C@@H]1c1ccccc1 | 14 | 
8 | OC(COCc1cc(C(F)(F)F)cc(C(F)(F)F)c1)C(c1ccccc1)c1ccccc1 (configuration not stated) | 17 | 

Results, then the compound that gave them:

Row | IC50 (Substance-P receptor [1]) [nM] | pKa (Substance-P receptor [2]) | SMILES
9 | 7 |  | O=C(C[C@H]1CCC[C@H](OCc2cc(C(F)(F)F)cc(C(F)(F)F)c2)[C@@H]1c1ccccc1)NCc1ccncc1
10 | 34 |  | O=C(NCc1cccnc1)NC[C@H]1CCC[C@H](OCc2cc(C(F)(F)F)cc(C(F)(F)F)c2)[C@@H]1c1ccccc1
11 | ≥ 157 |  | NC(=O)C[C@@H]1CCC[C@@H](OCc2cc(C(F)(F)F)cc(C(F)(F)F)c2)[C@H]1c1ccccc1
12 | 3.7 |  | O=C(C[C@H]1CCC[C@H](OCc2cc(C(F)(F)F)cc(C(F)(F)F)c2)[C@@H]1c1ccccc1)NCc1cccnc1

— ChEMBL document CHEMBL1128752, “1,2,3-Trisubstituted cyclohexyl substance P antagonists: significance of the ring nitrogen in piperidine-based NK-1 receptor antagonists” (Bioorg Med Chem Lett, 1995)
